These are literature values, as cited in patent US8092783B2, “Gadolinium containing prussian blue nanoparticles as nontoxic MRI contrast agents having high relaxivity” (Kent State University, priority 2009, dated 2012).

The conditions of the data set: magnetic field strength 1.5 Tesla; commercial or literature agents.

Structures are written as SMILES.

For `CNC[C@H](O)[C@@H](O)[C@H](O)[C@H](O)CO.CNC[C@H](O)[C@@H](O)[C@H](O)[C@H](O)CO.O=C([O-])CN(CCN(CC(=O)[O-])CC(=O)O)CCN(CC(=O)[O-])CC(=O)O.[Gd+3]` [Magnevist@], the “relaxivity r1” value was 4.1 mM⁻¹ s⁻¹.
